According to ChEMBL document CHEMBL4390667, “Novel tacrine-tryptophan hybrids: Multi-target directed ligands as potential treatment for Alzheimer's disease” (Eur J Med Chem, 2019):

Columns and labels:
Acetylcholinesterase = Acetylcholinesterase (Homo sapiens, UniProt P22303)
Description: Inhibition of human recombinant AChE using acetylthiocholine iodide as substrate preincubated for 5 mins followed by substrate addition and measured over 2 mins by UV-Vis spectrophotometric analysis based Ellman's method

[1] = pampa, pH 7.4, 100 µM
Description: Effective permeability of the compound in PBS buffer at pH 7.4 at 100 uM after 3 to 6 hrs by PAMPA

Cholinesterase = Cholinesterase (Homo sapiens, UniProt P06276)
Description: Inhibition of human recombinant BChE using butyrylthiocholine iodide as substrate preincubated for 5 mins followed by substrate addition and measured over 2 mins by UV-Vis spectrophotometric analysis based Ellman's method

CHO-K1 = assay: cells; settings: Cricetulus griseus, CHO-K1, 24 h
Description: Cytotoxicity against CHOK1 cells assessed as reduction in cell viability incubated for 24 hrs by MTT assay

Nitric oxide synthase 1 = Nitric oxide synthase 1 (Rattus norvegicus, UniProt P29476)
Chain of Nitric oxide synthase 1 (P29476 whole entry, looked up): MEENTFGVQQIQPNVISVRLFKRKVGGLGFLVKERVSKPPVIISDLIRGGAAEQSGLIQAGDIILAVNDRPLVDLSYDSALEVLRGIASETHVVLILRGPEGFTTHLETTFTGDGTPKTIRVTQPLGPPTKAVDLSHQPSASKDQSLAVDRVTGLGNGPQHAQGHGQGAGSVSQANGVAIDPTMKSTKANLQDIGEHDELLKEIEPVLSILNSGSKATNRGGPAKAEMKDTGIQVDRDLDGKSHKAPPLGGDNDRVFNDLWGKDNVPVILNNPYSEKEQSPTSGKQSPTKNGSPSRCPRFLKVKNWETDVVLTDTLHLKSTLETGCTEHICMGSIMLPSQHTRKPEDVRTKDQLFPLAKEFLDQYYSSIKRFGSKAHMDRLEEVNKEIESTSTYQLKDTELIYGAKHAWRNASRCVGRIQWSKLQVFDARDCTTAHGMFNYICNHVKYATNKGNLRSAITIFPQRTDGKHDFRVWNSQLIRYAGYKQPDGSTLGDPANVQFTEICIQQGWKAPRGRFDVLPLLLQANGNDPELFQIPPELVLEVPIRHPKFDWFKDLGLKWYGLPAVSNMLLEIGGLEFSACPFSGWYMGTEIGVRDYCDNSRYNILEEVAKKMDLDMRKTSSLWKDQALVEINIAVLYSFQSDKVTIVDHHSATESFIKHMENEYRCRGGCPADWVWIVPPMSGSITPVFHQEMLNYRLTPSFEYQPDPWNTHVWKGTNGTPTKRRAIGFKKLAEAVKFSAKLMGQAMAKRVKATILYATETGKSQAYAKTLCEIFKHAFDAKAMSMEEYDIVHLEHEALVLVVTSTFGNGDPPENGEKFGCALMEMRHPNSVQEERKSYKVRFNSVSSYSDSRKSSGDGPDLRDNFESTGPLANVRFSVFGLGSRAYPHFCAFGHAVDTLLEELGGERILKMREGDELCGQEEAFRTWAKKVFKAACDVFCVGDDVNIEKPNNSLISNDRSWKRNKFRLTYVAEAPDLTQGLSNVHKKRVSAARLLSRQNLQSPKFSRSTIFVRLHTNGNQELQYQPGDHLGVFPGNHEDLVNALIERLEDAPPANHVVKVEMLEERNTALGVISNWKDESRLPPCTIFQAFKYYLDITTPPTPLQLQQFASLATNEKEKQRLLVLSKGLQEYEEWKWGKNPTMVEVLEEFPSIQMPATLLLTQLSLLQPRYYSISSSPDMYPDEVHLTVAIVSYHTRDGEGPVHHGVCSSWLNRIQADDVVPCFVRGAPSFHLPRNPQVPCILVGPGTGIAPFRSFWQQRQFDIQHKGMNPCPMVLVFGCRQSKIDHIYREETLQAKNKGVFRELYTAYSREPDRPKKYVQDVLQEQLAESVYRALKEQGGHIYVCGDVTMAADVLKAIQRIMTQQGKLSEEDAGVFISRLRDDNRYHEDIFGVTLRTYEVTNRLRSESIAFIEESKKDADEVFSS
Description: Inhibition of nNOS in Wistar rat cortical homogenates incubated for 30 mins

HepG2 = assay: cells; settings: Homo sapiens, HepG2, 24 h
Description: Cytotoxicity against human HepG2 cells assessed as reduction in cell viability incubated for 24 hrs by MTT assay

Chain of Cholinesterase (P06276 whole entry): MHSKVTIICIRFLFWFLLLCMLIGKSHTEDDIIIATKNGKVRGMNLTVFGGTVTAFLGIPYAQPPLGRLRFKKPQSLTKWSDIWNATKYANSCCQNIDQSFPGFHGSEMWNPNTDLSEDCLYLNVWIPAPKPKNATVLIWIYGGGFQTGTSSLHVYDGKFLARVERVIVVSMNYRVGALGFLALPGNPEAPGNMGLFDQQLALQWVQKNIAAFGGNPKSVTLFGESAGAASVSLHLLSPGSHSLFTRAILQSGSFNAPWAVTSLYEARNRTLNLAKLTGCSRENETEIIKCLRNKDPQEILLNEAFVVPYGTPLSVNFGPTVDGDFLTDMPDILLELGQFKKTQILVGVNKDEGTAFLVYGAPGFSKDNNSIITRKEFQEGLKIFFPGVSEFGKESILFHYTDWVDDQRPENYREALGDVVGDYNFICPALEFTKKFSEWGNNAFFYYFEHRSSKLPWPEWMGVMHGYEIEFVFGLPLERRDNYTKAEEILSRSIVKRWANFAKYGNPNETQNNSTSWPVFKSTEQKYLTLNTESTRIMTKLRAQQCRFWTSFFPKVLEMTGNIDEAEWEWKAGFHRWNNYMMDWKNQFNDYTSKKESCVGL
Chain of Acetylcholinesterase (P22303 whole entry): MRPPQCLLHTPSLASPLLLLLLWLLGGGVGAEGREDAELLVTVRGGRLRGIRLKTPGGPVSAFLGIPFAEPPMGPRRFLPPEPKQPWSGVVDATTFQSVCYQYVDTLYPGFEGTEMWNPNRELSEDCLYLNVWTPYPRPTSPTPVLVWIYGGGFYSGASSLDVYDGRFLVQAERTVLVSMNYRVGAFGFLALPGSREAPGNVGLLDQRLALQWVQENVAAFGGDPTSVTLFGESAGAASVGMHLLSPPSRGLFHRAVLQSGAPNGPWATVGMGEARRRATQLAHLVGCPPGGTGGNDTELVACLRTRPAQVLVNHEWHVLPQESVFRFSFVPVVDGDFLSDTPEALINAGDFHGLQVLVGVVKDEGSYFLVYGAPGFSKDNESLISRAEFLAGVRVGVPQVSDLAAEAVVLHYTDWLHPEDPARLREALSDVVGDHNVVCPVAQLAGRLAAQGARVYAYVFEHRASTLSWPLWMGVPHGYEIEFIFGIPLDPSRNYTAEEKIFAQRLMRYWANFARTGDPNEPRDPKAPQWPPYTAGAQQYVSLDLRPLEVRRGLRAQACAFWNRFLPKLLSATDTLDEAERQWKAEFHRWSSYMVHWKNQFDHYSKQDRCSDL

Structure (SMILES)	IC50 (Acetylcholinesterase) [µM]	permeability [1]	IC50 (Cholinesterase) [µM]	IC50 (CHO-K1) [µM]	IC50 (Nitric oxide synthase 1) [µM]	IC50 (HepG2) [µM]
Cl.Cl.N[C@@H](Cc1c[nH]c2ccccc12)C(=O)NCCCNc1c2c(nc3ccccc13)CCCC2	0.58	Impermeable	0.04	116	32	
Cl.Cl.N[C@H](Cc1c[nH]c2ccccc12)C(=O)NCCCCCCNc1c2c(nc3cc(Cl)ccc13)CCCC2	0.0069	Permeable	0.14	15	26	4.2
Cl.Cl.N[C@@H](Cc1c[nH]c2ccccc12)C(=O)NCCCCNc1c2c(nc3ccccc13)CCCC2	1.3	Permeable	0.123	34	18	
Cl.Cl.NC(Cc1c[nH]c2ccccc12)C(=O)NCCCCCCNc1c2c(nc3cc(Cl)ccc13)CCCC2 (racemic)	0.0074	Permeable	0.013	21	33	5.1
COc1ccc2nc3c(c(NCCNC(=O)[C@@H](N)Cc4c[nH]c5ccccc45)c2c1)CCCC3.Cl.Cl	5.7	Impermeable	0.48	131	19	
COc1ccc2nc3c(c(N)c2c1)CCCC3		Permeable		63		120
N[C@@H](Cc1c[nH]c2ccccc12)C(=O)NCCCCNc1c2c(nc3cc(Cl)ccc13)CCCC2	0.062		0.12	16	26	
Nc1c2c(nc3cc(Cl)ccc13)CCCC2		Permeable		71		71
N[C@@H](Cc1c[nH]c2ccccc12)C(=O)NCCNc1c2c(nc3cc(Cl)ccc13)CCCC2	0.16		0.34	26	39	
O=C(CCCCCNc1c2c(nc3cc(Cl)ccc13)CCCC2)NCCc1cc2ccccc2[nH]1	0.00073	Permeable	0.18			
Cl.Cl.N[C@@H](Cc1c[nH]c2ccccc12)C(=O)NCCCCCCCCNc1c2c(nc3cc(Cl)ccc13)CCCC2	0.05	Permeable	0.14	65	43	
c1ccc2c(NCCCCCCCNc3c4c(nc5ccccc35)CCCC4)c3c(nc2c1)CCCC3					2.9	
N[C@@H](Cc1c[nH]c2ccccc12)C(=O)NCCCNc1c2c(nc3cc(Cl)ccc13)CCCC2	0.07		0.14	29	31	
N[C@@H](Cc1c[nH]c2ccccc12)C(=O)NCCCCCNc1c2c(nc3cc(Cl)ccc13)CCCC2	0.076		0.074	21	27	
Cl.Cl.N[C@@H](Cc1c[nH]c2ccccc12)C(=O)NCCCCCCCNc1c2c(nc3cc(Cl)ccc13)CCCC2	0.019	Permeable	0.052	24	27	6
